A short description of data set [1]: clinical. The following applies: human, in vivo, iv, CL.
A short description of data set [2]: clinical. Conditions: human, in vivo, iv, Vdss.
A short description of data set [3]: clinical. Conditions: human, in vivo, iv, t1/2.
Data set [4] is described as follows: clinical. Conditions: human, in vivo, iv.

These results are taken from ChEMBL document CHEMBL1614632, “Trend analysis of a database of intravenous pharmacokinetic parameters in humans for 670 drug compounds” (Drug Metab Dispos, 2008).

As usually defined, the clearance is a measure of how efficiently the substance is removed, as volume per time. Higher therefore signals a high capacity for elimination. As usually defined, the Vd is a proportionality between amount in the body and measured concentration, not a real space. Low values mean confinement near the circulation, high ones extensive tissue distribution. As a reminder, the half-life is the time needed for the level to fall by half in the phase considered. Low readings indicate rapid decline, high ones slow decline. By MRT is commonly meant a mean duration of stay, worked out from the concentration-time curve.

For `Cc1[nH]c(=O)c(C#N)cc1-c1ccncc1` [MILRINONE], the clearance in “clinical [1]” was 6.2 mL/min/kg. This compound showed a Vd in the data set “clinical [2]” of 0.25 L/kg. In the data set “clinical [3]”, the half-life is 0.8 h. In “clinical [4]”, this compound came in with an MRT of 0.67 h.

Compound `C[C@@H]1O[C@@H]1P(=O)(O)O` [FOSFOMYCIN] came in with a clearance in “clinical [1]” of 2 mL/min/kg. In the data set “clinical [2]”, this compound showed a Vd of 0.32 L/kg. The same compound showed a half-life in the data set “clinical [3]” of 1.9 h. In “clinical [4]”, this compound displayed an MRT of 2.7 h.

`Cn1cc[nH]c1=S` [METHIMAZOLE]: in “clinical [1]”, the clearance is 3.7 mL/min/kg. In the data set “clinical [2]”, this compound showed a Vd of 0.86 L/kg. The compound further showed a half-life in the data set “clinical [3]” of 2.4 h. Moreover, the MRT in the data set “clinical [4]” stood at 3.8 h.

With `O=C(O)Cc1ccccc1Nc1c(Cl)cccc1Cl` [DICLOFENAC], in “clinical [1]”, the clearance was 3.5 mL/min/kg. The compound further returned a Vd in “clinical [2]” of 0.22 L/kg. In the data set “clinical [3]”, this compound gave a half-life of 1.4 h. In the data set “clinical [4]”, this compound showed an MRT of 1 h.

In “clinical [1]”, `CCC1=C[C@@H]2CN(C1)Cc1c([nH]c3ccccc13)[C@@](C(=O)OC)(c1cc3c(cc1OC)N(C)[C@H]1[C@@](O)(C(=O)OC)[C@H](OC(C)=O)[C@]4(CC)C=CCN5CC[C@]31[C@@H]54)C2` (stereo in doubt; form 1) [VINORELBINE] registered a clearance of 12 mL/min/kg. Moreover, in the data set “clinical [2]”, the Vd came out at 12 L/kg. In the data set “clinical [3]”, the half-life is 18 h. In the data set “clinical [4]”, this compound had an MRT of 17 h.

In the case of `Nc1ncn([C@H]2C[C@H](O)[C@@H](CO)O2)c(=O)n1` [DECITABINE], in the data set “clinical [1]”, the clearance is 130 mL/min/kg. This compound registered a Vd in “clinical [2]” of 4.6 L/kg. This compound also gave a half-life in “clinical [3]” of 0.58 h. For the same compound, the MRT in “clinical [4]” worked out at 0.59 h.

`CNS(=O)(=O)CCc1ccc2[nH]cc(C3CCN(C)CC3)c2c1` showed a clearance in the data set “clinical [1]” of 6.6 mL/min/kg. This compound displayed a Vd in “clinical [2]” of 2.4 L/kg. The half-life in “clinical [3]” is 6.6 h. Further, in the data set “clinical [4]”, the MRT turned out to be 6.1 h.

The compound `C[C@@](O)(/C=C/[C@H]1CC=CC(=O)O1)[C@@H](C[C@@H](O)\C=C/C=C\C=C\CO)OP(=O)(O)O` [FOSTRIECIN] came in with a clearance in “clinical [1]” of 1.2 mL/min/kg. This compound came in with a Vd in “clinical [2]” of 0.086 L/kg. The compound also had a half-life in the data set “clinical [3]” of 1.5 h. The same compound registered an MRT in “clinical [4]” of 1.2 h.

Consider `O=C1Cc2cc(CCN3CCN(c4nsc5ccccc45)CC3)c(Cl)cc2N1` [ZIPRASIDONE], for which the clearance in “clinical [1]” was 5.1 mL/min/kg. In the data set “clinical [2]”, this compound gave a Vd of 1 L/kg. Besides, in “clinical [3]”, the half-life is 3.1 h. For the same compound, the MRT in “clinical [4]” came to 3.3 h.

In turn, `COCCCOc1ccnc(C[S+]([O-])c2nc3ccccc3[nH]2)c1C` (stereo unspecified) [RABEPRAZOLE] came in with a clearance in the data set “clinical [1]” of 4 mL/min/kg. The compound also returned a Vd in the data set “clinical [2]” of 0.22 L/kg. In the data set “clinical [3]”, this compound showed a half-life of 1 h. Further, the MRT in the data set “clinical [4]” came to 0.92 h.

The compound `COc1cc(CC(=O)NCC(=O)N(CCC(=O)O)Cc2ccc(OC)c(OC)c2)ccc1NC(=O)Nc1ccccc1C` registered a clearance in the data set “clinical [1]” of 11 mL/min/kg. In “clinical [2]”, this compound showed a Vd of 0.25 L/kg. For the same compound, the half-life in the data set “clinical [3]” was 1.6 h. The compound also showed an MRT in the data set “clinical [4]” of 0.38 h.

In “clinical [1]”, `OC(Cn1cncn1)(Cn1cncn1)c1ccc(F)cc1F` [FLUCONAZOLE] registered a clearance of 0.31 mL/min/kg. In addition, in “clinical [2]”, the Vd was 0.75 L/kg. Also, the half-life in “clinical [3]” was 30 h. This compound displayed an MRT in the data set “clinical [4]” of 40 h.

On to `OC(CNCC(O)C1CCc2cc(F)ccc2O1)C1CCc2cc(F)ccc2O1` (stereo unspecified) [NEBIVOLOL], for which the clearance in “clinical [1]” came to 14 mL/min/kg. Moreover, the Vd in the data set “clinical [2]” amounted to 11 L/kg. The same compound showed a half-life in “clinical [3]” of 10 h. This compound showed an MRT in “clinical [4]” of 13 h.

Compound `CC1(C)S[C@@H]2[C@H](NC(=O)[C@H](N)c3ccc(O)cc3)C(=O)N2[C@H]1C(=O)O` [AMOXICILLIN] showed a clearance in the data set “clinical [1]” of 3.3 mL/min/kg. In the data set “clinical [2]”, this compound registered a Vd of 0.25 L/kg. This compound showed a half-life in the data set “clinical [3]” of 1.1 h. The compound also had an MRT in the data set “clinical [4]” of 1.3 h.

In the case of `CCCN(CCC)S(=O)(=O)c1ccc(C(=O)O)cc1` [PROBENECID], the clearance in the data set “clinical [1]” was determined as 0.25 mL/min/kg. In addition, the Vd in “clinical [2]” worked out at 0.13 L/kg. Also, in “clinical [3]”, the half-life is 5.9 h. For the same compound, in “clinical [4]”, the MRT was 8.7 h.

Compound `C[C@H]1O[C@@H](n2cc(F)c(=O)[nH]c2=O)[C@H](O)[C@@H]1O` [DOXIFLURIDINE] had a clearance in “clinical [1]” of 11 mL/min/kg. Besides, in the data set “clinical [2]”, the Vd stood at 0.28 L/kg. This compound showed a half-life in “clinical [3]” of 0.35 h. In the data set “clinical [4]”, this compound had an MRT of 0.46 h.

`NC(=O)NO` [HYDROXYUREA]: the clearance in the data set “clinical [1]” was determined as 1.5 mL/min/kg. The same compound gave a Vd in the data set “clinical [2]” of 0.52 L/kg. The compound further gave a half-life in “clinical [3]” of 3.4 h. This compound yielded an MRT in the data set “clinical [4]” of 4.8 h.

As to `COc1ccccc1N1CCN(CCCNc2cc(=O)n(C)c(=O)n2C)CC1`, in the data set “clinical [1]”, the clearance came out at 3.1 mL/min/kg. Moreover, the Vd in “clinical [2]” came out at 0.75 L/kg. For the same compound, the half-life in the data set “clinical [3]” is 3.5 h. In the data set “clinical [4]”, this compound returned a mean residence time (MRT) of 4 h.

`O=C1NCC2(CCN(CCc3ccccc3)CC2)O1` [FENSPIRIDE] had a clearance in “clinical [1]” of 2.6 mL/min/kg. The same compound showed a Vd in “clinical [2]” of 3 L/kg. Also, the half-life in “clinical [3]” is 14 h. For the same compound, the MRT in the data set “clinical [4]” stood at 19 h.

In the data set “clinical [1]”, `CCC(=O)C1(c2cccc(O)c2)CCN(C)CC1` [KETOBEMIDONE] displayed a clearance of 9.2 mL/min/kg. In the data set “clinical [2]”, the Vd worked out at 0.48 L/kg. In the data set “clinical [3]”, this compound had a half-life of 2.3 h. The MRT in “clinical [4]” was 0.87 h.

For the compound `C[C@H]1O[C@@H](O[C@H]2[C@@H](O)C[C@H](O[C@H]3[C@@H](O)C[C@H](O[C@H]4CC[C@@]5(C)[C@H](CC[C@@H]6[C@@H]5C[C@@H](O)[C@]5(C)[C@@H](C7=CC(=O)OC7)CC[C@]65O)C4)O[C@@H]3C)O[C@@H]2C)C[C@H](O)[C@@H]1O` [DIGOXIN], the clearance in “clinical [1]” is 1.7 mL/min/kg. The Vd in the data set “clinical [2]” was 4.1 L/kg. Besides, the half-life in the data set “clinical [3]” is 38 h. The compound further displayed an MRT in “clinical [4]” of 40 h.

In turn, `CCN(CC)CCNC(=O)c1cc(Cl)c(N)cc1OC` [METOCLOPRAMIDE] came in with a clearance in the data set “clinical [1]” of 5.7 mL/min/kg. In addition, the Vd in the data set “clinical [2]” amounted to 3.2 L/kg. Besides, the half-life in “clinical [3]” is 7.2 h. Also, the MRT in the data set “clinical [4]” stood at 9.4 h.

In turn, `CC[C@@]1(O)C(=O)OCc2c1cc1n(c2=O)Cc2c-1nc1cc(F)c(C)c3c1c2[C@@H](N)CC3` [EXATECAN] yielded a clearance in the data set “clinical [1]” of 0.96 mL/min/kg. Moreover, the Vd in “clinical [2]” is 0.44 L/kg. The same compound showed a half-life in “clinical [3]” of 6.7 h. The compound also displayed a mean residence time MRT in the data set “clinical [4]” of 7.6 h.

Consider `N#Cc1ccc2c(c1)CN(S(=O)(=O)c1cccs1)[C@H](Cc1ccccc1)CN2Cc1cnc[nH]1` [BMS-214662], for which the clearance in the data set “clinical [1]” stood at 9.6 mL/min/kg. Moreover, the Vd in the data set “clinical [2]” is 0.84 L/kg. The same compound had a half-life in the data set “clinical [3]” of 1.6 h. The compound further displayed an MRT in “clinical [4]” of 1.4 h.

Consider `CC(=O)NC[C@H]1CN(c2ccc(N3CCOCC3)c(F)c2)C(=O)O1` [LINEZOLID], for which the clearance in the data set “clinical [1]” stood at 1.8 mL/min/kg. The compound also showed a Vd in “clinical [2]” of 0.58 L/kg. In “clinical [3]”, the half-life is 4.5 h. Further, the MRT in the data set “clinical [4]” worked out at 5.4 h.

Turning to `C[C@H]1COc2c(N3CCN(C)CC3)c(F)cc3c(=O)c(C(=O)O)cn1c23.C[C@H]1COc2c(N3CCN(C)CC3)c(F)cc3c(=O)c(C(=O)O)cn1c23.O` [LEVOFLOXACIN], the clearance in the data set “clinical [1]” was 1.9 mL/min/kg. In the data set “clinical [2]”, this compound came in with a Vd of 1.2 L/kg. For the same compound, the half-life in the data set “clinical [3]” was 8.8 h. In addition, the MRT in the data set “clinical [4]” worked out at 11 h.

`NC1CCN(c2c(F)cc3c(=O)c(C(=O)O)cn(C4CC4)c3c2Cl)C1` (stereo unspecified) [CLINAFLOXACIN]: the clearance in “clinical [1]” is 4.7 mL/min/kg. For the same compound, the Vd in “clinical [2]” stood at 1.9 L/kg. The half-life in “clinical [3]” is 5.4 h. In “clinical [4]”, this compound returned an MRT of 6.7 h.

In the case of `Cc1nnc(SCC2=C(C(=O)O)N3C(=O)[C@@H](NC(=O)[C@H](O)c4ccccc4)[C@H]3SC2)s1`, the clearance in the data set “clinical [1]” came out at 2.6 mL/min/kg. In the data set “clinical [2]”, this compound showed a Vd of 0.13 L/kg. The half-life in the data set “clinical [3]” was 1 h. In the data set “clinical [4]”, the MRT amounted to 0.83 h.

Compound `N=C(N)NC(=O)Cc1c(Cl)cccc1Cl` [GUANFACINE] came in with a clearance in “clinical [1]” of 4.5 mL/min/kg. In the data set “clinical [2]”, the Vd is 5.6 L/kg. The half-life in the data set “clinical [3]” is 15 h. Moreover, the MRT in the data set “clinical [4]” is 22 h.
